Where a name gives a salt, the structure may show the parent alone. Read-outs that look alike come from different tables or passages of the source.
Columns and labels:
[1] = test system: 2-phenyl-1,4-benzoquinone-induced writhing; assay: Inhibition of phenylquinone-induced writhing in mice (PQW), analgesic activity; format: in vivo, mice (male CD-1 Charles River); details: Mus musculus, sc, read-out: ANALGESIC ACTIVITY, POW (ED50)
Experimental: Compounds I of the present invention are also useful as analgesic agents due to their ability to alleviate pain in mammals. […] Exptl. Biol. Med., 95, 729 (1957)].
A 0.125% concentration of phenyl-p-benzoquinone in a 5% aqueous solution of ethyl alcohol is administered to mice (10 mL/kg, ip). This produces a characteristic "writhe" which is defined as an inward rotation of one or more feet with twisting and turning of the trunk, drawing in of the abdominal wall, lordosis, and arching of the back. A total of 28 male CD-1 Charles River mice (18-30 g) are employed for a time-response. Animals receive food and water ad libitum during their stay in the animal quarters prior to testing. Compounds are tested at 20 mg/kg, sc and are prepared with distilled water, and if insoluble one drop of Tween-80, a surfactant is added. Compounds are administered in a dosage volume of 10 mL/kg.
Twenty mice (five per group) are administered the test compound at various pretreat time (e.g., 15, 30, 45, and 60 min) prior to phenylquinone injection. Control animals (two per group) receive an equal volume of vehicle. After the administration of phenylquinone, the mice are placed separately into 1-L beakers, and 5 min are allowed to elapse. The mice are then observed for a period of 10 min, and the number of writhers is recorded for each animal. The formula for computing percent inhibition is [formula]
The time period with the maximum percent of inhibition is considered the peak time. A dose-response is reserved for interesting compounds or those which inhibit writhing by 70% or more. A dose-response is run in the same manner as a time-response except 10 animals per group are tested at the peak time of drug activity. Fifty animals, divided among four drug groups and one vehicle control group, are employed. The mice are normally given four doses of drug, each twice the amount of the preceding dose. An ED50 is calculated by a computer linear regression analysis.
Results of this assay for some of the compounds of this invention and eseroline salicylate (reference compound) are shown in Table 3.

[2] = test system: Scopolamine Induced Memory Deficit; assay: Dark Avoidance Assay (reversal of scopolamine induced memory deficit); format: in vivo; details: mice, s.c.
Experimental: In this assay mice are tested for their ability to remember an unpleasant stimulus for a period of 24 hours. A mouse is placed in a chamber that contains a dark compartment; a strong incandescent light drives it to the dark compartment, where an electric shock is administered through metal plates on the floor. The animal is removed from the testing apparatus and tested again, 24 hours later, for the ability to remember the electric shock.
If scopolamine, an anticholinergic that is known to cause memory impairment, is administered before an animal's initial exposure to the test chamber, the animal re-enters the dark compartment shortly after being placed in the test chamber 24 hours later. This effect of scopolamine is blocked by an active test compound, resulting in a greater interval before re-entry into the dark compartment.
The results for an active compound are expressed as the percent of a group of animals in which the effect of scopolamine is blocked, as manifested by an increased interval between being placed in the test chamber and re-entering the dark compartment.

[3] = molecular target: T1, Brain AChE (Rattus norvegicus, UniProt P37136); assay: In vitro inhibition of acetylcholinesterase activity in rat striatum (modified Ellman); format: biochemical, rat (male Wistar)
T1 construct: brains rapidly removed, corpora striata dissected free, weighed and homogenized in 19 volumes; from tissue; host or cells: corpus striatum homogenate of male Wistar rats
T1 sequence (P37136 32-614): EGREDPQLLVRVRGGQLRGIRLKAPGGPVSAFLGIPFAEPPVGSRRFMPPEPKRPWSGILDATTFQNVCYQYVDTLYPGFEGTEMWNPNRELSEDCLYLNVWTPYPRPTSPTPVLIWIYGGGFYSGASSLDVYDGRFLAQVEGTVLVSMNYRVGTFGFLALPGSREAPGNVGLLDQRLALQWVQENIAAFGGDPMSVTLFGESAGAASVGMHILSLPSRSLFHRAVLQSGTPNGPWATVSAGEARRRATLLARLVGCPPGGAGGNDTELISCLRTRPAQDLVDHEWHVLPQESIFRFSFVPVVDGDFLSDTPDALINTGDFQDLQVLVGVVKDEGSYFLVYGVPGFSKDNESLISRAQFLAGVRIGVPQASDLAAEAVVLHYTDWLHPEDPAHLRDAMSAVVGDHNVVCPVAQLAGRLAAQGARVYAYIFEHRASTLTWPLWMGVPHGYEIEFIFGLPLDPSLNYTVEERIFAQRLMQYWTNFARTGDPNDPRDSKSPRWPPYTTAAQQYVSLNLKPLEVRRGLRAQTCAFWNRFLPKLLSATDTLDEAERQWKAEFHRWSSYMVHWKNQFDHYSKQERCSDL
Experimental: Cholinesterases are found throughout the body, both in the brain and in serum. However, only brain acetylcholinesterase (AChE) distribution is correlated with central cholinergic innervation.
This is a modification of the method of Ellman et al., Biochem. Pharmacol. 7, 98 (1961).
1. 0.05M Phosphate buffer, pH 7.2
(a) 6.85 g NaH2 PO4 .cndot.H2 O/100 ml distilled H2 O
(c) add (a) to (b) until pH reaches 7.2
(a) 9.9 mg 5,5-dithiobisnitrobenzoic acid (DTNB) (0.25 mM)
(c) q.s. to 100 ml with 0.05M phosphate buffer, pH 7.2 (reagent 1)
3. For most assays, a […] stock solution of the test drug is made up in a suitable solvent and serially diluted such that the final concentration in the preincubation step ranges from 10^-3 to 10^-6 M. Different concentrations may be used depending on the potency of the drug. […]
Following the 10 minute preincubation of the tissue (enzyme) with the inhibitor, the samples are mixed with the substrate chromogen buffer by the ABA-100. Using the indicated instrument settings the ABA-100 automatically reads the color reaction and prints out the results in enzyme units after 15 minutes.
2. The enzyme activity can also be measured with a Gilford 250 spectrophotometer. […]
The uninhibited activity of the enzyme (tissue homogenate) is first determined. […] The reaction rate is determined by the slope of the recorded absorbance change. […]

| SMILES | % of Animals with Scopolamine Induced Memory Deficit Reversal ([2]; 0.16 mg/kg of body weight) | ED50 [1] | other results |
| --- | --- | --- | --- |
| CN1CC[C@@]2(C)c3cc(O)ccc3N(C)[C@@H]12 [Eseroline Salicylate, reference compound] |  |  | ED50 ([1]; mice, s.c., ED50 by linear regression per method, at peak time): 0.52 mg/kg |
| CNC(=O)N(C)C(=O)Oc1ccc2c(c1)[C@]1(C)CCN(C)[C@@H]1N2C [Example 1, (3aS-cis)-1,2,3,3a,8,8a-Hexahydro-1,3a,8-trimethylpyrrolo[2,3-b]indol-5-yl methyl[(methylamino)carbonyl] carbamate] | 20% | 8 mg/kg |  |
| CNC(=O)N(C)C(=O)Oc1cc(C)c2c(c1)[C@]1(C)CCN(C)[C@@H]1N2C [Example 2, (3aS-cis)-1,2,3,3a,8,8a-Hexahydro-1,3a,7,8-tetramethylpyrrolo[2,3-b]indol-5-yl methyl[(methylamino)carbonyl] carbamate] |  | 0.81 mg/kg |  |
| CCCNC(=O)N(CCC)C(=O)Oc1ccc2c(c1)[C@]1(C)CCN(C)[C@@H]1N2C [Example 4, (3aS-cis)-1,2,3,3a,8,8a-Hexahydro-1,3a,8-trimethylpyrrolo[2,3-b]indol-5-yl propyl[(propylamino)carbonyl] carbamate oxalate] | 40% |  | % of Animals with Scopolamine Induced Memory Deficit Reversal ([2]; 2.50 mg/kg of body weight): 36% |
| CN(C(=O)Nc1cccc(Cl)c1)C(=O)Oc1ccc2c(c1)[C@]1(C)CCN(C)[C@@H]1N2C [Example 5, (3aS-cis)-1,2,3,3a,8,8a-Hexahydro-1,3a,8-trimethylpyrrolo[2,3-b]indol-5-yl methyl[[(3-chlorophenyl)amino]carbonyl] carbamate] |  | 0.15 mg/kg | IC50 [3]: 207 nM |
| CNC(=O)Oc1ccc2c(c1)[C@]1(C)CCN(C)[C@@H]1N2C [Physostigmine, reference compound] |  |  | % of Animals with Scopolamine Induced Memory Deficit Reversal ([2]; 0.31 mg/kg of body weight): 20% |

— patent publication US5077289A (priority 1989, dated 1991)
